Assay results reported in PMC8185074, “Anchor extension: a structure-guided approach to design cyclic peptides targeting enzyme active sites” (Nature Communications, 2021).
Peptide text beside a SMILES is read from it.

Assays:
Format in all cases: biochemical
HDAC2 [1] = biological target: T1, HDAC2 (Homo sapiens, UniProt Q92769); experiment: Initial HDAC2 IC50 estimate (BPS Biosciences HDAC fluorogenic assay kit); details: Supplementary Dataset 2; read-out: HDAC2 activity (initial activity)
T1 construct: purchased Reaction Biology Corporation (assay run by the CRO)
T1 sequence (Q92769 whole entry): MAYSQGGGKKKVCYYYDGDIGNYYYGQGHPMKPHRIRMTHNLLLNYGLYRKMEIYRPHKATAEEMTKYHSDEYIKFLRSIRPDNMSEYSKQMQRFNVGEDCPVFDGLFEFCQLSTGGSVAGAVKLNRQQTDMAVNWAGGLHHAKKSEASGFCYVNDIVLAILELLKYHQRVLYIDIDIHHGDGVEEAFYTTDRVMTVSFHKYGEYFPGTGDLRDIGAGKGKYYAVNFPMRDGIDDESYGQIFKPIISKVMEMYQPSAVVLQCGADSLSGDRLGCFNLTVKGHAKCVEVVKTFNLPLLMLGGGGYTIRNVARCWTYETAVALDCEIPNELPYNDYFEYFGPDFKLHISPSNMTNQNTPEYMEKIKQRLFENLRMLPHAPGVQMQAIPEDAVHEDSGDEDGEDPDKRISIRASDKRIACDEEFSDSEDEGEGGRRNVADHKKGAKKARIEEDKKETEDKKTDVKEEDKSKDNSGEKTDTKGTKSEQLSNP
Method in brief: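 Inhibition measured by kit-based fluorogenic HDAC activity assays, with each point in duplicate or triplicate. Values come from a full 1 µM–100 pM series (1:10 steps) or are range estimates from just 20 nM and 200 nM.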

HDAC8 = biological target: T2, HDAC8 (Homo sapiens, UniProt Q9BY41); experiment: HDAC8 inhibition, full IC50 measurement (Reaction Biology; fluorogenic p53 peptide RHKK(Ac)AMC); details: t1/t2 replicates
T2 construct: purchased Reaction Biology Corporation (assay run by the CRO)
T2 sequence (Q9BY41 1-377): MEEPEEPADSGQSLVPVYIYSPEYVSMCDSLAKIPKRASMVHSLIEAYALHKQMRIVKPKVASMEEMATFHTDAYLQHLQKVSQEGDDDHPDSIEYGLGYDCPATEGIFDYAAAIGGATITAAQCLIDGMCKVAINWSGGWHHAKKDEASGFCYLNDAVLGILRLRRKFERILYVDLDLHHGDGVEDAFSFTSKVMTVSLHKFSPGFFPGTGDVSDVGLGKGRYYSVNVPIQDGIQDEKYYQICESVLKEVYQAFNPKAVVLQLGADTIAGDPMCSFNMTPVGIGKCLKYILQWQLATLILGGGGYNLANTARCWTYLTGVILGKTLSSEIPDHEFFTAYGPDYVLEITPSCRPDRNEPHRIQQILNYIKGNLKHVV
Method in brief: (§1)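 The reaction was a 1 h, 30 °C incubation of enzyme, acoustically added peptide and 50 μM p53-derived AMC substrate in pH 8.0 Tris buffer with NaCl, KCl, MgCl2, 1 mg/ml BSA and 1% DMSO. Duplicate values were averaged.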

HDAC2 [2] = biological target: T1, HDAC2; experiment: HDAC2 inhibition, full IC50 measurement (Reaction Biology; fluorogenic p53 peptide RHKK(Ac)AMC)
Method in brief: as §1

N=C(N)NCCC[C@@H]1NC(=O)[C@H](Cc2c[nH]c3ccccc23)NC(=O)[C@H](CC(=O)O)NC(=O)[C@@H](CO)NC(=O)[C@H](Cc2c[nH]c3ccccc23)NC(=O)[C@H](CCCCCS)NC(=O)[C@H](CCC(N)=O)NC1=O [des4.1.0, SHA-Trp-dSer-Asp-Trp-Arg-Gln] (HELM PEPTIDE1{D.W.R.Q.[O=C([C@H](CCCCCS)N[*:1])[*:2]].W.[dS]}$PEPTIDE1,PEPTIDE1,1:R1-7:R2$$$V2.0)
IC50 (HDAC2 [1]): 0.1 µM | HDAC8 activity raw data (signal) (HDAC8; peptide conc. 1.00E-05 M, listed as des4.1.0_t1): 100967 | HDAC8 activity raw data (signal) (HDAC8; peptide conc. 1.00E-05 M, listed as des4.1.0_t2): 38752 | HDAC8 activity raw data (signal) (HDAC8; peptide conc. 1.11E-06 M, listed as des4.1.0_t1): 234716 | HDAC8 activity raw data (signal) (HDAC8; peptide conc. 1.11E-06 M, listed as des4.1.0_t2): 226734 | HDAC8 activity raw data (signal) (HDAC8; peptide conc. 1.23E-07 M, listed as des4.1.0_t1): 803512 | HDAC8 activity raw data (signal) (HDAC8; peptide conc. 1.23E-07 M, listed as des4.1.0_t2): 713240 | HDAC8 activity raw data (signal) (HDAC8; peptide conc. 1.37E-08 M, listed as des4.1.0_t1): 943537 | HDAC8 activity raw data (signal) (HDAC8; peptide conc. 1.37E-08 M, listed as des4.1.0_t2): 964221 | HDAC8 activity raw data (signal) (HDAC8; peptide conc. 1.52E-09 M, listed as des4.1.0_t1): 948817 | HDAC8 activity raw data (signal) (HDAC8; peptide conc. 1.52E-09 M, listed as des4.1.0_t2): 953073 | HDAC8 activity raw data (signal) (HDAC8; peptide conc. 3.33E-06 M, listed as des4.1.0_t1): 100659 | HDAC8 activity raw data (signal) (HDAC8; peptide conc. 3.33E-06 M, listed as des4.1.0_t2): 171679 | HDAC8 activity raw data (signal) (HDAC8; peptide conc. 3.70E-07 M, listed as des4.1.0_t1): 597298 | HDAC8 activity raw data (signal) (HDAC8; peptide conc. 3.70E-07 M, listed as des4.1.0_t2): 553055 | HDAC8 activity raw data (signal) (HDAC8; peptide conc. 4.12E-08 M, listed as des4.1.0_t1): 940975 | HDAC8 activity raw data (signal) (HDAC8; peptide conc. 4.12E-08 M, listed as des4.1.0_t2): 825924 | HDAC8 activity raw data (signal) (HDAC8; peptide conc. 4.57E-09 M, listed as des4.1.0_t1): 958670 | HDAC8 activity raw data (signal) (HDAC8; peptide conc. 4.57E-09 M, listed as des4.1.0_t2): 869070 | HDAC8 activity raw data (signal) (HDAC8; peptide conc. 5.08E-10 M, listed as des4.1.0_t1): 1026116 | HDAC8 activity raw data (signal) (HDAC8; peptide conc. 5.08E-10 M, listed as des4.1.0_t2): 927553 | HDAC2 activity raw data (signal) (HDAC2 [2]; Conc. 1.00E-05 M, t1): -10519 | HDAC2 activity raw data (signal) (HDAC2 [2]; Conc. 1.00E-05 M, t2): -26565 | HDAC2 activity raw data (signal) (HDAC2 [2]; Conc. 1.11E-06 M, t1): 79842 | HDAC2 activity raw data (signal) (HDAC2 [2]; Conc. 1.11E-06 M, t2): 48499 | HDAC2 activity raw data (signal) (HDAC2 [2]; Conc. 1.23E-07 M, t1): 872533 | HDAC2 activity raw data (signal) (HDAC2 [2]; Conc. 1.23E-07 M, t2): 734242 | HDAC2 activity raw data (signal) (HDAC2 [2]; Conc. 1.37E-08 M, t1): 1715554 | HDAC2 activity raw data (signal) (HDAC2 [2]; Conc. 1.37E-08 M, t2): 1674658 | HDAC2 activity raw data (signal) (HDAC2 [2]; Conc. 1.52E-09 M, t1): 1955635 | HDAC2 activity raw data (signal) (HDAC2 [2]; Conc. 1.52E-09 M, t2): 1838943 | HDAC2 activity raw data (signal) (HDAC2 [2]; Conc. 3.33E-06 M, t1): 20013 | HDAC2 activity raw data (signal) (HDAC2 [2]; Conc. 3.33E-06 M, t2): 16353 | HDAC2 activity raw data (signal) (HDAC2 [2]; Conc. 3.70E-07 M, t1): 220224 | HDAC2 activity raw data (signal) (HDAC2 [2]; Conc. 3.70E-07 M, t2): 182542 | HDAC2 activity raw data (signal) (HDAC2 [2]; Conc. 4.12E-08 M, t1): 1421192 | HDAC2 activity raw data (signal) (HDAC2 [2]; Conc. 4.12E-08 M, t2): 1355422 | HDAC2 activity raw data (signal) (HDAC2 [2]; Conc. 4.57E-09 M, t1): 1969255 | HDAC2 activity raw data (signal) (HDAC2 [2]; Conc. 4.57E-09 M, t2): 1793366 | HDAC2 activity raw data (signal) (HDAC2 [2]; Conc. 5.08E-10 M, t1): 1865278 | HDAC2 activity raw data (signal) (HDAC2 [2]; Conc. 5.08E-10 M, t2): 1807628

N=C(N)NCCC[C@H]1NC(=O)[C@@H]2CCCN2C(=O)[C@H](CO)NC(=O)[C@@H](Cc2c[nH]cn2)NC(=O)[C@H](CCCCCS)NC(=O)[C@H](CCCCN)NC(=O)[C@H](Cc2ccc(O)cc2)NC(=O)[C@H]2CCCN2C(=O)[C@@H](CCC(N)=O)NC1=O [des3.1.0, SHA-dHis-Ser-Pro-dArg-dGln-dPro-Tyr-Lys] (HELM PEPTIDE1{K.[O=C([C@H](CCCCCS)N[*:1])[*:2]].[dH].S.P.[dR].[dQ].[dP].Y}$PEPTIDE1,PEPTIDE1,1:R1-9:R2$$$V2.0)
IC50 (HDAC2 [1]): 1.4 µM | HDAC8 activity raw data (signal) (HDAC8; peptide conc. 1.00E-05 M, listed as des3.1.0_t1): 177071 | HDAC8 activity raw data (signal) (HDAC8; peptide conc. 1.00E-05 M, listed as des3.1.0_t2): 217357 | HDAC8 activity raw data (signal) (HDAC8; peptide conc. 1.11E-06 M, listed as des3.1.0_t1): 702584 | HDAC8 activity raw data (signal) (HDAC8; peptide conc. 1.11E-06 M, listed as des3.1.0_t2): 678372 | HDAC8 activity raw data (signal) (HDAC8; peptide conc. 1.23E-07 M, listed as des3.1.0_t1): 829409 | HDAC8 activity raw data (signal) (HDAC8; peptide conc. 1.23E-07 M, listed as des3.1.0_t2): 942877 | HDAC8 activity raw data (signal) (HDAC8; peptide conc. 1.37E-08 M, listed as des3.1.0_t1): 914161 | HDAC8 activity raw data (signal) (HDAC8; peptide conc. 1.37E-08 M, listed as des3.1.0_t2): 1065224 | HDAC8 activity raw data (signal) (HDAC8; peptide conc. 1.52E-09 M, listed as des3.1.0_t1): 932207 | HDAC8 activity raw data (signal) (HDAC8; peptide conc. 1.52E-09 M, listed as des3.1.0_t2): 1002240 | HDAC8 activity raw data (signal) (HDAC8; peptide conc. 3.33E-06 M, listed as des3.1.0_t1): 396779 | HDAC8 activity raw data (signal) (HDAC8; peptide conc. 3.33E-06 M, listed as des3.1.0_t2): 364112 | HDAC8 activity raw data (signal) (HDAC8; peptide conc. 3.70E-07 M, listed as des3.1.0_t1): 821171 | HDAC8 activity raw data (signal) (HDAC8; peptide conc. 3.70E-07 M, listed as des3.1.0_t2): 831364 | HDAC8 activity raw data (signal) (HDAC8; peptide conc. 4.12E-08 M, listed as des3.1.0_t1): 888545 | HDAC8 activity raw data (signal) (HDAC8; peptide conc. 4.12E-08 M, listed as des3.1.0_t2): 997244 | HDAC8 activity raw data (signal) (HDAC8; peptide conc. 4.57E-09 M, listed as des3.1.0_t1): 750196 | HDAC8 activity raw data (signal) (HDAC8; peptide conc. 4.57E-09 M, listed as des3.1.0_t2): 946901 | HDAC8 activity raw data (signal) (HDAC8; peptide conc. 5.08E-10 M, listed as des3.1.0_t1): 807432 | HDAC8 activity raw data (signal) (HDAC8; peptide conc. 5.08E-10 M, listed as des3.1.0_t2): 990498 | HDAC2 activity raw data (signal) (HDAC2 [2]; Conc. 1.00E-05 M, t1): 59408 | HDAC2 activity raw data (signal) (HDAC2 [2]; Conc. 1.00E-05 M, t2): 72667 | HDAC2 activity raw data (signal) (HDAC2 [2]; Conc. 1.11E-06 M, t1): 433904 | HDAC2 activity raw data (signal) (HDAC2 [2]; Conc. 1.11E-06 M, t2): 343376 | HDAC2 activity raw data (signal) (HDAC2 [2]; Conc. 1.23E-07 M, t1): 657996 | HDAC2 activity raw data (signal) (HDAC2 [2]; Conc. 1.23E-07 M, t2): 873444 | HDAC2 activity raw data (signal) (HDAC2 [2]; Conc. 1.37E-08 M, t1): 729280 | HDAC2 activity raw data (signal) (HDAC2 [2]; Conc. 1.37E-08 M, t2): 826208 | HDAC2 activity raw data (signal) (HDAC2 [2]; Conc. 1.52E-09 M, t1): 589537 | HDAC2 activity raw data (signal) (HDAC2 [2]; Conc. 1.52E-09 M, t2): 821627 | HDAC2 activity raw data (signal) (HDAC2 [2]; Conc. 3.33E-06 M, t1): 217345 | HDAC2 activity raw data (signal) (HDAC2 [2]; Conc. 3.33E-06 M, t2): 176595 | HDAC2 activity raw data (signal) (HDAC2 [2]; Conc. 3.70E-07 M, t1): 565181 | HDAC2 activity raw data (signal) (HDAC2 [2]; Conc. 3.70E-07 M, t2): 599514 | HDAC2 activity raw data (signal) (HDAC2 [2]; Conc. 4.12E-08 M, t1): 715436 | HDAC2 activity raw data (signal) (HDAC2 [2]; Conc. 4.12E-08 M, t2): 918076 | HDAC2 activity raw data (signal) (HDAC2 [2]; Conc. 4.57E-09 M, t1): 697486 | HDAC2 activity raw data (signal) (HDAC2 [2]; Conc. 4.57E-09 M, t2): 737052 | HDAC2 activity raw data (signal) (HDAC2 [2]; Conc. 5.08E-10 M, t1): 616136 | HDAC2 activity raw data (signal) (HDAC2 [2]; Conc. 5.08E-10 M, t2): 674996
